Key:
[1] = xn = mol fraction of the nth substance listed; conditions: 308.15 K, Liquid; for speed of sound: Frequency=2 MHz, Linear variable-path acoustic interferometer
[2] = excess molar enthalpy (molar enthalpy of mixing); xn = mol fraction of the nth substance listed; conditions: 308.15 K, Liquid, 2-drop calorimeter
[3] = Liquid; for speed of sound / mass density: 101.33 kPa; for speed of sound: Linear variable-path acoustic interferometer; for mass density: Pycnometric method; for vapor or sublimation pressure: Closed cell (Static) method

Nc1ccccc1 [aniline] + C1COCO1
Conditions	excess molar enthalpy [kcal/mol]	excess molar volume [m3/mol]	speed of sound [m/s]
[1], x2 = 0.0789	–	-1.34e-07	–
[1], x2 = 0.0812	–	–	1587
[1], x2 = 0.1132	–	-1.88e-07	–
[1], x2 = 0.1413	–	–	1576
[1], x2 = 0.2204	–	-3.3e-07	–
[1], x2 = 0.2212	–	–	1557
[1], x2 = 0.2916	–	–	1539
[1], x2 = 0.3111	–	-4.28e-07	–
[1], x2 = 0.3488	–	–	1523
[1], x2 = 0.4281	–	-4.97e-07	–
[1], x2 = 0.4621	–	–	1489
[1], x2 = 0.4916	–	-5.16e-07	–
[1], x2 = 0.5219	–	–	1470
[1], x2 = 0.523	–	-5.17e-07	–
[1], x2 = 0.5928	–	–	1447
[1], x2 = 0.5999	–	-4.93e-07	–
[1], x2 = 0.6342	–	-4.77e-07	–
[1], x2 = 0.6414	–	–	1431
[1], x2 = 0.7114	–	-4.18e-07	–
[1], x2 = 0.7131	–	–	1406
[1], x2 = 0.8001	–	–	1374
[1], x2 = 0.8202	–	-2.94e-07	–
[1], x2 = 0.8715	–	–	1347
[1], x2 = 0.8913	–	-1.9e-07	–
[1], x2 = 0.9213	–	–	1327
[1], x2 = 0.9233	–	-1.38e-07	–
[1], x2 = 0.9711	–	–	1307
[1], x2 = 0.9718	–	-5.25e-08	–
[2], x2 = 0.0613	-0.0386	–	–
[2], x2 = 0.1622	-0.0988	–	–
[2], x2 = 0.2241	-0.131	–	–
[2], x2 = 0.2774	-0.156	–	–
[2], x2 = 0.3503	-0.184	–	–
[2], x2 = 0.4231	-0.203	–	–
[2], x2 = 0.5511	-0.215	–	–
[2], x2 = 0.5812	-0.214	–	–
[2], x2 = 0.6223	-0.209	–	–
[2], x2 = 0.6816	-0.195	–	–
[2], x2 = 0.7519	-0.171	–	–
[2], x2 = 0.8127	-0.14	–	–
[2], x2 = 0.8928	-0.0887	–	–
[2], x2 = 0.9514	-0.0435	–	–

C1COCO1 [1,3-dioxolane]
[3]
Conditions	mass density [kg/m3]	speed of sound [m/s]	vapor or sublimation pressure [kPa]
298.15 K	1047.2	1388	–
308.15 K	–	–	21.5

Cc1ccccc1N [2-methylaniline]
[3]
Conditions	mass density [kg/m3]	speed of sound [m/s]	vapor or sublimation pressure [kPa]
298.15 K	994.2	1602	–
308.15 K	–	–	0.1067

CNc1ccccc1 [N-methylaniline] + C1COCO1
Conditions	excess molar enthalpy [kcal/mol]	excess molar volume [m3/mol]	speed of sound [m/s]
[1], x2 = 0.0415	–	–	1521
[1], x2 = 0.0709	–	-1.8e-08	–
[1], x2 = 0.1211	–	–	1511
[1], x2 = 0.1771	–	-4.5e-08	–
[1], x2 = 0.2001	–	–	1501
[1], x2 = 0.2387	–	-6.3e-08	–
[1], x2 = 0.2754	–	–	1490
[1], x2 = 0.2958	–	-8e-08	–
[1], x2 = 0.3349	–	-8.8e-08	–
[1], x2 = 0.3512	–	–	1477
[1], x2 = 0.3916	–	-9.5e-08	–
[1], x2 = 0.4222	–	–	1463
[1], x2 = 0.4361	–	-1.02e-07	–
[1], x2 = 0.4912	–	-1.1e-07	–
[1], x2 = 0.4943	–	–	1447
[1], x2 = 0.5421	–	–	1436
[1], x2 = 0.5531	–	-1.12e-07	–
[1], x2 = 0.6213	–	–	1415
[1], x2 = 0.6272	–	-1.04e-07	–
[1], x2 = 0.6992	–	-9.3e-08	–
[1], x2 = 0.7003	–	–	1393
[1], x2 = 0.7417	–	-8.8e-08	–
[1], x2 = 0.7832	–	–	1367
[1], x2 = 0.8545	–	-5.1e-08	–
[1], x2 = 0.8632	–	–	1341
[1], x2 = 0.9011	–	–	1329
[1], x2 = 0.9213	–	-3e-08	–
[1], x2 = 0.9632	–	–	1307
[2], x2 = 0.0853	-0.0914	–	–
[2], x2 = 0.1423	-0.13	–	–
[2], x2 = 0.2533	-0.162	–	–
[2], x2 = 0.3765	-0.156	–	–
[2], x2 = 0.4531	-0.141	–	–
[2], x2 = 0.5123	-0.127	–	–
[2], x2 = 0.5976	-0.105	–	–
[2], x2 = 0.6432	-0.0927	–	–
[2], x2 = 0.7123	-0.0749	–	–
[2], x2 = 0.7943	-0.0561	–	–
[2], x2 = 0.8543	-0.0409	–	–
[2], x2 = 0.8912	-0.0321	–	–
[2], x2 = 0.9321	-0.0223	–	–
[2], x2 = 0.9721	-0.00894	–	–

Cc1ccccc1N [2-methylaniline] + C1COCO1
Conditions	excess molar enthalpy [kcal/mol]	excess molar volume [m3/mol]	speed of sound [m/s]
[1], x2 = 0.0549	–	-8.4e-08	–
[1], x2 = 0.1122	–	–	1539
[1], x2 = 0.1721	–	-2.51e-07	–
[1], x2 = 0.1891	–	–	1526
[1], x2 = 0.2239	–	-3.12e-07	–
[1], x2 = 0.2413	–	–	1516
[1], x2 = 0.2769	–	-3.75e-07	–
[1], x2 = 0.2911	–	–	1506
[1], x2 = 0.3212	–	–	1500
[1], x2 = 0.351	–	-4.43e-07	–
[1], x2 = 0.4011	–	–	1484
[1], x2 = 0.4217	–	-4.86e-07	–
[1], x2 = 0.4513	–	–	1473
[1], x2 = 0.5518	–	-5.12e-07	–
[1], x2 = 0.5651	–	–	1444
[1], x2 = 0.5889	–	-5.12e-07	–
[1], x2 = 0.6218	–	-4.97e-07	–
[1], x2 = 0.6637	–	–	1415
[1], x2 = 0.6831	–	-4.66e-07	–
[1], x2 = 0.6989	–	–	1404
[1], x2 = 0.7512	–	–	1386
[1], x2 = 0.7523	–	-4.07e-07	–
[1], x2 = 0.8147	–	-3.28e-07	–
[1], x2 = 0.8319	–	–	1358
[1], x2 = 0.8916	–	-2.16e-07	–
[1], x2 = 0.9071	–	–	1330
[1], x2 = 0.9407	–	-1.23e-07	–
[1], x2 = 0.9713	–	–	1306
[2], x2 = 0.0754	-0.0527	–	–
[2], x2 = 0.1632	-0.111	–	–
[2], x2 = 0.2424	-0.155	–	–
[2], x2 = 0.3213	-0.188	–	–
[2], x2 = 0.4001	-0.209	–	–
[2], x2 = 0.4843	-0.217	–	–
[2], x2 = 0.5655	-0.208	–	–
[2], x2 = 0.6112	-0.198	–	–
[2], x2 = 0.6979	-0.166	–	–
[2], x2 = 0.7432	-0.145	–	–
[2], x2 = 0.808	-0.112	–	–
[2], x2 = 0.8831	-0.0672	–	–
[2], x2 = 0.9311	-0.039	–	–
[2], x2 = 0.9621	-0.0207	–	–

CNc1ccccc1 [N-methylaniline]
[3]
Conditions	mass density [kg/m3]	speed of sound [m/s]	vapor or sublimation pressure [kPa]
298.15 K	982.4	1572	–
308.15 K	–	–	0.0667

Nc1ccccc1 [aniline]
[3], 298.15 K
Conditions	mass density [kg/m3]	speed of sound [m/s]	vapor or sublimation pressure [kPa]
–	1017.2	1635	0.0933
